Like-named read-outs stand apart in the source and are kept apart here. Blank lines part the entries; values can stand above or below the compound they belong to.
How the values were obtained:
[1] = test system: MDA-MB-231 cells; test: Anti-proliferation test (CCK8), singly and combined with TMZ; type: cell-based; settings: for IC50: 8 days; for PF50: PF50=[IC50 of the tested compound]/[IC50 at fixed TMZ concentration]
Protocol: (§1) MDA-MB-436 and MDA-MB-231 cells were seeded in a 96-well plate at a density of 500 and 2000 cell per well, respectively, and cultured overnight. The medium was RPMI 1640 containing 10% (v/v) FBS and 1% (v/v) penicillin-streptomycin. They were treated for 8 days after the compound to be tested was added. Cell viability was measured by CCK8 kit. Specifically, 10 µL CCK8 reagent was added to each well and incubated in a 5% CO2 incubator at 37° C. for 3 hours. After shaking for 10 minutes, the light absorbance (OD value) was measured with a Flexstation III (Molecular Device) at 450 nm.
(§2) For the test of compound combinations (in combination with DNA damage drugs), the PF50 value was used to calculate the synergistic effect of the drug. PF50=[IC50 of the tested compound]/[IC50 of the compound at a fixed DNA damage drug concentration]. Temozolomide (TMZ) was used as DNA damage drug in this study.

[2] = test system: MDA-MB-436 cells; test: as above; type: cell-based; settings: for IC50: 8 days; for PF50: PF50=[IC50 of the tested compound]/[IC50 at fixed TMZ concentration]
Protocol: as §1, §2

[3] = Stability test for Crystal type A in different solvents; type: physicochemical; settings: for Results (crystalline state by XRPD): 3 days
Description: After being stirred for 3 days, the samples were centrifuged and the solid in all samples were collected. XRPD was used to determine the crystalline state.

[4] = Solid stability test for Crystal type A under high temperature, high humidity and strong illumination; type: physicochemical
Protocol: The sample placed at 60° C. and 92.5% relative humidity was sealed with aluminum foil at the vial mouth, and the aluminum foil was pricked to ensure that the sample was fully exposed to the ambient air; the sample placed under strong illumination (5Klux) was sealed with a screw cap. The samples placed under different conditions were sampled and tested on the 10th day. The test results were compared with the initial test results on the 0th day.

[5] = Homo sapiens, MDA-MB-231, 192 h, MDA-MB-231, combined with 1uM TMZ, average, read-out: IC50_Avg
[6] = Homo sapiens, MDA-MB-231, 192 h, MDA-MB-231, combined with 1uM TMZ, run N=1, read-out: IC50_N = 1
[7] = Homo sapiens, MDA-MB-231, 192 h, MDA-MB-231, combined with 1uM TMZ, run N=2, read-out: IC50_N = 2
[8] = Homo sapiens, MDA-MB-231, 192 h, MDA-MB-231, used singly, average, read-out: IC50_Avg
[9] = Homo sapiens, MDA-MB-231, 192 h, MDA-MB-231, used singly, run N=1, read-out: IC50_N = 1
[10] = Homo sapiens, MDA-MB-231, 192 h, MDA-MB-231, used singly, run N=2, read-out: IC50_N = 2
[11] = MDA-MB-231, combined with 1uM TMZ
[12] = Homo sapiens, MDA-MB-436, 192 h, MDA-MB-436, combined with 25uM TMZ, average, read-out: IC50_Avg
[13] = Homo sapiens, MDA-MB-436, 192 h, MDA-MB-436, combined with 25uM TMZ, run N=1, read-out: IC50_N = 1
[14] = Homo sapiens, MDA-MB-436, 192 h, MDA-MB-436, combined with 25uM TMZ, run N=2, read-out: IC50_N= 2
[15] = Homo sapiens, MDA-MB-436, 192 h, MDA-MB-436, used singly, average, read-out: IC50_Avg
[16] = Homo sapiens, MDA-MB-436, 192 h, MDA-MB-436, used singly, run N=1, read-out: IC50_N = 1
[17] = Homo sapiens, MDA-MB-436, 192 h, MDA-MB-436, used singly, run N=2, read-out: IC50_N= 2
[18] = MDA-MB-436, combined with 25uM TMZ
[19] = Strong illumination (sealed), 5Klux, day 10

IC50 [1, 5]: 30.7 µM
IC50 [1, 6]: 25.5 µM
IC50 [1, 7]: 36 µM
IC50 [1, 8]: 40.5 µM
IC50 [1, 9]: 44 µM
IC50 [1, 10]: 37 µM
IC50 [2, 12]: 0.018 µM
IC50 [2, 13]: 0.026 µM
IC50 [2, 14]: 0.01 µM
IC50 [2, 15]: 0.305 µM
IC50 [2, 16]: 0.444 µM
IC50 [2, 17]: 0.167 µM
SMILES: C[C@]1(c2nc3c(C(N)=O)cccc3[nH]2)CCCN1 [ABT-888, Veliparib]
PF50 [1, 11]: 1.32
PF50 [2, 18]: 17.14

SMILES: CC(C)N1CCC(C)(c2cnn3c2[nH]c2cc(F)cc(C(N)=O)c23)CC1 [Compound 1, 6-fluoro-3-(1-isopropyl-4-methylpiperidin-4-yl)-4H-benzo[4,5]imidazo[1,2-b]pyrazol-8-carboxamide]
IC50 [1, 5]: 4.86 µM
IC50 [1, 6]: 3.96 µM
IC50 [1, 7]: 5.75 µM
IC50 [1, 8]: 5.83 µM
IC50 [1, 9]: 6.21 µM
IC50 [1, 10]: 5.44 µM
PF50 [1, 11]: 1.20
inhibitory effect on cell line ([2]; BRAC mutant MDA-MB-436 cell line): strong inhibitory effect
IC50 [2, 12]: 0.007 µM
IC50 [2, 13]: 0.009 µM
IC50 [2, 14]: 0.005 µM
IC50 [2, 15]: 0.071 µM
IC50 [2, 16]: 0.089 µM
IC50 [2, 17]: 0.053 µM
PF50 [2, 18]: 9.84
synergistic effect ([2]; combined with TMZ): good synergistic effect

SMILES: CC(C)N1CCC(C)(c2cnn3c2[nH]c2cc(F)cc(C(N)=O)c23)CC1.O=C(O)/C=C\C(=O)O [Crystal type A, 6-fluoro-3-(1-isopropyl-4-methylpiperidin-4-yl)-4H-benzo[4,5]imidazo[1,2-b]pyrazol-8-formamide.maleate monohydrate]
Appearance (3 days) ([3]; Acetone, 25° C.): Suspension
Results (crystalline state by XRPD) ([3]; Acetone, stirred at 25° C.): Crystal type A
Appearance (3 days) ([3]; Acetone:water = 1:2, 25° C.): Suspension
Results (crystalline state by XRPD) ([3]; Acetone:water = 1:2, stirred at 25° C.): Crystal type A
Appearance (3 days) ([3]; Acetonitrile:water = 1:1, 25° C.): Suspension
Results (crystalline state by XRPD) ([3]; Acetonitrile:water = 1:1, stirred at 25° C.): Crystal type A
Appearance (3 days) ([3]; Ethanol, 25° C.): Suspension
Results (crystalline state by XRPD) ([3]; Ethanol, stirred at 25° C.): Crystal type A
Appearance (3 days) ([3]; Ethanol:water = 3:1, 25° C.): Suspension
Results (crystalline state by XRPD) ([3]; Ethanol:water = 3:1, stirred at 25° C.): Crystal type A
Appearance (3 days) ([3]; Ethyl acetate, 25° C.): Suspension
Results (crystalline state by XRPD) ([3]; Ethyl acetate, stirred at 25° C.): Crystal type A
Appearance (3 days) ([3]; Isopropanol, 25° C.): Suspension
Results (crystalline state by XRPD) ([3]; Isopropanol, stirred at 25° C.): Crystal type A
Appearance (3 days) ([3]; Isopropanol:water = 1:1, 25° C.): Suspension
Results (crystalline state by XRPD) ([3]; Isopropanol:water = 1:1, stirred at 25° C.): Crystal type A
Appearance (3 days) ([3]; Methanol, 25° C.): Suspension
Results (crystalline state by XRPD) ([3]; Methanol, stirred at 25° C.): Crystal type A
Appearance (3 days) ([3]; Methanol:water = 3:1, 25° C.): Suspension
Results (crystalline state by XRPD) ([3]; Methanol:water = 3:1, stirred at 25° C.): Crystal type A
Appearance ([4]; 60° C. (open), day 10): White powder
Content (%) ([4]; 60° C. (open), day 10): 98.5%
Total impurities (%) ([4]; 60° C. (open), day 10): 0.11%
Appearance ([4]; 92.5% RH (open), day 10): White powder
Content (%) ([4]; 92.5% RH (open), day 10): 99.5%
Total impurities (%) ([4]; 92.5% RH (open), day 10): 0.10%
Appearance [4, 19]: White powder
Content (%) [4, 19]: 99.4%
Total impurities (%) [4, 19]: 0.11%
Appearance ([4]; initial, day 0): White powder
Content (%) ([4]; initial, day 0): 98.9%
Total impurities (%) ([4]; initial, day 0): 0.10%

IC50 [1, 8]: 4.17 µM
IC50 [1, 9]: 4.61 µM
IC50 [1, 10]: 3.72 µM
IC50 ([1]; MDA-MB-231, used singly, average, read-out: IC50_Avg): 3.42 µM
IC50 ([1]; MDA-MB-231, used singly, run N=1, read-out: IC50_N = 1): 3.33 µM
IC50 ([1]; MDA-MB-231, used singly, run N=2, read-out: IC50_N = 2): 3.52 µM
IC50 [2, 15]: 111 µM
IC50 [2, 16]: 80.2 µM
IC50 ([2]; MDA-MB-436, used singly, average, read-out: IC50_Avg): 107 µM
IC50 ([2]; MDA-MB-436, used singly, run N=1, read-out: IC50_N = 1): 152 µM
SMILES: Cn1nnc2c(C(N)=O)ncn2c1=O [TMZ, temozolomide]

From patent US10941150B2, “Salt type and crystal type of 4h-pyrazolo [1, 5-alpha] benzimidazole compound and preparation method and intermediate thereof” (HUBEI BIO-PHARMACEUTICAL INDUSTRIAL TECHNOLOGICAL INSTITUTE …, priority 2015, dated 2021)
